Measured values published in ChEMBL document CHEMBL1146797, “Design, synthesis, and biological evaluation of novel T-Type calcium channel antagonists” (Bioorg Med Chem Lett, 2004).

Experiments:
LNCaP [1] = test: Inhibition of cellular proliferation in LNCaP (prostate).; assay type: functional, cell-based; conditions: Homo sapiens
Jurkat [2] = test: Inhibition of calcium influx in jurkat (T cells).; assay type: functional, cell-based; conditions: Homo sapiens
Jurkat [3] = test: Inhibition of cellular proliferation in jurkat (T cells).; assay type: functional, cell-based; conditions: Homo sapiens
MDA-MB-361 [4] = test: Inhibition of cellular proliferation in MDA-361 (breast) tumor cells.; assay type: functional, cell-based; conditions: Homo sapiens
LNCaP [5] = test: (§1) Inhibition of calcium influx in LNCaP (prostate).; assay type: functional, cell-based; conditions: Homo sapiens, Prostate gland
MDA-MB-361 [6] = test: Inhibition of calcium influx in MDA-361 (breast) tumor cells.; assay type: functional, cell-based; conditions: Homo sapiens
LNCaP [7] = test: as §1; assay type: functional, cell-based, Homo sapiens, Prostate gland

| Compound | IC50 (LNCaP [1]) [µM] | IC50 (Jurkat [2]) [µM] | IC50 (Jurkat [3]) [µM] | IC50 (MDA-MB-361 [4]) [µM] | IC50 (LNCaP [5]) [µM] | IC50 (MDA-MB-361 [6]) [µM] | IC50 (LNCaP [7]) |
| --- | --- | --- | --- | --- | --- | --- | --- |
| COc1ccc(CCN2CCC[C@H]2COCc2ccccc2)cc1 | 33 | 100 | 108 | 83 | 100 | 20 | – |
| COc1cccc(CCN2CCC[C@H]2COC(c2ccccc2)c2ccc(Cl)cc2)c1 (stereo partly drawn) | 3.2 | 3 | 5 | 29 | 10 | 30 | – |
| Oc1ccc(CCN2CCC[C@H]2COC(c2ccccc2)c2ccc(Cl)cc2)cc1 (stereo partly drawn) | 3 | 10 | 6 | 11 | 10 | 30 | – |
| Clc1ccc(C(OC[C@@H]2CCCN2CCc2ccccc2)c2ccccc2)cc1 (stereo partly drawn) | 8 | < 1 | 11 | 27 | 30 | 3 | – |
| COc1ccc(CCN2CCC[C@H]2COC(c2ccc(OC)cc2)c2ccc(OC)cc2)cc1 | 5.1 | 15 | 13 | 15 | 10 | 20 | – |
| COc1ccc(CCN2CCCCC2COC(c2ccccc2)c2ccc(Cl)cc2)cc1 (stereo not drawn) | 5 | 3 | 11 | 25 | 10 | 30 | – |
| COc1ccc(CCN2CCCC(COC(c3ccc(Cl)cc3)c3ccc(Cl)cc3)C2)cc1 (stereo not drawn) | 5 | 10 | 9.6 | 13 | 5 | 30 | – |
| COc1ccc(CN2CCC[C@H]2COC(c2ccccc2)c2ccc(Cl)cc2)cc1 (stereo partly drawn) | 7.7 | 2 | 10 | 30 | – | 30 | No effect |
| COc1ccc(CCN2CCC(COC(c3ccc(Cl)cc3)c3ccc(Cl)cc3)CC2)cc1 | 3.4 | 10 | 11.1 | 7.1 | 10 | 20 | – |
| COc1ccc(CCN2CCC(COC(c3ccccc3)c3ccc(Cl)cc3)CC2)cc1 (stereo not drawn) | 3.3 | 7 | 8.4 | 10.4 | 5 | 25 | – |
| COc1ccc(CCN2CCC[C@H]2COC(c2ccccc2)c2ccc(F)cc2)cc1 (stereo partly drawn) | 2 | 3 | 13 | 14 | 10 | 20 | – |
| COc1ccc(CCN2CCC[C@H]2COC(c2ccc(C)cc2)c2ccc(C)cc2)cc1 | 6 | 3 | 11 | 40 | 5 | 20 | – |
| COc1ccc(CCN2CCC(COC(c3ccccc3)c3ccccc3)CC2)cc1 | 5 | 20 | 8.3 | 10 | 15 | 30 | – |
